Test results taken from patent US9527847B2, “Treatment of lupus, fibrotic conditions, and inflammatory myopathies and other disorders using PI3 kinase inhibitors” (INFINITY PHARMACEUTICALS, INC., priority 2012, dated 2016).
Values joined by “and” are separate entries in the source; they are usually repeats but may differ in a detail not shown here. Identical values can stand only once. “Also recorded” adds a separate entry of the source.

Experiments:
[1] = system: mouse EAE model; assay: Experimental Autoimmune Encephalomyelitis (EAE) model, semi-therapeutic, 28 day; assay type: in vivo; conditions: for End % body weight +/− SD: Day 27 relative to Day −1; for End score +/− SD: Day 28; for Mean day of EAE onset: after immunization, mice which developed EAE; for Inflammatory foci +/− SD: per spinal cord section; for Demyelination (LFB) +/− SD: score per section
Method: EAE was induced in 60 mice using Hooke Kit™ MOG35-55/CFA Emulsion PTX (Hooke Laboratories, Lawrence Mass.), catalog number EK-0110, lot number 0104, per manufacturer's recommended protocol, except that pertussis toxin was diluted with phosphate buffered saline to achieve 1.4× and 1.3× solution (starting from the 1.5× solution in the kit). This was done to optimize disease severity for this particular study.
Mice were injected subcutaneously, at two sites in the back, with the emulsion component of the kit (containing MOG35-55). One site of injection was in the area of the upper back, approximately 1 cm caudal of the neck line. The second site was in the area of the lower back, approximately 2 cm cranial of the base of the tail. Injection volume was 0.1 mL at each site. Within 2 hours of the injection of emulsion, and then again 24 hours after the injection of emulsion, the pertussis toxin component of the kit was administered intraperitoneally. Volume of each injection was 0.1 mL.
Vehicle for Group 2 (FTY720) was water and 2% ethanol. Vehicle for all other groups was water, 0.5% CMC (low viscosity), and 0.05% Tween80. Mice were dosed at the same time every day, +/−1 hour. The last day of dosing was Day 27 after immunization.
Readouts were EAE scores and changes in body weight. Mice were scored daily from Day 7 to Day 28, and body weights were measured three times/week (Monday, Wednesday and Friday), starting on Day −1.
EAE was scored on scale 0 to 5: • 0 No obvious changes in motor functions of the mouse in comparison to non-immunized mice. When picked up by the tail, the tail has tension and is erect. Hind legs are usually spread apart. When the mouse is walking, there is no gait or head tilting. • 1 Limp tail. When the mouse is picked up by the tail, instead of being erect, the whole tail drapes over finger. • 2 Limp tail and weakness of hind legs. When mouse is picked up by tail, legs are not spread apart, but held closer together. When the mouse is observed walking, it has a clearly apparent wobbly walk. • 3 Limp tail and complete paralysis of hind legs (most common); or limp tail with paralysis of one front and one hind leg; or all of: severe head tilting, walking only along the edges of the cage, pushing against the cage wall, and spinning when picked up by the tail. • 4 Limp tail, complete hind leg and partial front leg paralysis. Mouse is minimally moving around the cage but appears alert and feeding Usually, euthanasia is recommended after the mouse scores level 4 for 2 days. When the mouse is euthanized because of severe paralysis, score of 5 is entered for that mouse for the rest of the experiment. • 5 Complete hind and complete front leg paralysis, no movement around the cage; or mouse is spontaneously rolling in the cage; or mouse is found dead due to paralysis.
At the end of the study 3 luxol fast blue (LFB) stained sections and 3 H&E sections, from lumbar, thoracic, and cervical spinal cord of all mice in Groups 1, 2, 3, and 6 and the 3 naïve mice were prepared and analyzed.
Inflammatory foci were counted in each H&E stained section. Each group of approximately 20 cells was counted as one focus. Foci larger than 20 cells were counted based on an estimate of how many foci of 20 cells were present.
The demyelination score represents an estimate of demyelinated area for each section as follows. For LFB stained slides, the demyelinated area was estimated based on intensity of blue staining of myelin. For H&E stained sections, demyelinated area was estimated by looking for interruption of normal structure—pallor and vacuolation consistent with edema and demyelination, and dilated axons. • 0—no demyelination (less than 5% demyelinated area) • 1—5 to 20% demyelinated area • 2—20 to 40% demyelinated area • 3—40 to 60% demyelinated area • 4—60 to 80% demyelinated area • 5—80 to 100% demyelinated area.
The number of apoptotic cells in each of the three H&E sections was determined.

[2] = system: TLR9 (CPG-A induced cytokines); assay: CPG-A induced cytokine production in PBMCs; assay type: cell-based, human
Method: Human PBMCs were stimulated with CPG-A. CPG-A selectively activates PDCs, inducing IFN-α production via TLR9. IFN-α is a PDC cell selective readout. Primary human PBMCs from two normal human donors were used as a source of PDC cells. 200 K cells per well were used. […] Then the cells were treated with the specified concentration of CPG-A for 16 hours. RPMI-5% serum was employed.
These experiments were conducted using PBMCs.

Structure (SMILES): C[C@H](Nc1ncnc2[nH]cnc12)c1cc2cccc(Cl)c2c(=O)n1-c1ccccc1 [Compound 292]
- Apoptotic cells, average per section+/−SD ([1]; 0.3 mg/kg QD p.o.): 1.7+/−0.9
- Demyelination score (H&E sections), average per section+/−SD ([1]; 0.3 mg/kg QD p.o.): 1.5+/−0.5
- MMS +/− SD ([1]; 0.3 mg/kg QD p.o.): 2.50+/−0.85
- Median Day of Onset ([1]; 0.3 mg/kg QD p.o.): 11.5 days
- End % body weight +/− SD ([1]; 0.3 mg/kg QD p.o.): 96.1+/−11.8%
- End score +/− SD ([1]; 0.3 mg/kg QD p.o.): 1.60+/−1.02
- Mean day of EAE onset ([1]; 0.3 mg/kg QD p.o.): 11.3 ± 0.4 days
- Inflammatory foci +/− SD ([1]; 0.3 mg/kg QD p.o.): 2.9+/−1.5
- Demyelination (LFB) +/− SD ([1]; 0.3 mg/kg QD p.o.): 1.2+/−0.7
- MMS +/− SD ([1]; 1 mg/kg QD p.o.): 2.70+/−0.72
- Median Day of Onset ([1]; 1 mg/kg QD p.o.): 11 days and 11.0 days
- End % body weight +/− SD ([1]; 1 mg/kg QD p.o.): 99.0+/−7.4%
- End score +/− SD ([1]; 1 mg/kg QD p.o.): 1.40+/−0.81
- Mean day of EAE onset ([1]; 1 mg/kg QD p.o.): 12.5 ± 1.0 days
- MMS +/− SD ([1]; 3 mg/kg QD p.o.): 3.40+/−0.21
- Median Day of Onset ([1]; 3 mg/kg QD p.o.): 12 days and 12.0 days
- End % body weight +/− SD ([1]; 3 mg/kg QD p.o.): 87.7+/−6.4%
- End score +/− SD ([1]; 3 mg/kg QD p.o.): 2.65+/−0.67
- Mean day of EAE onset ([1]; 3 mg/kg QD p.o.): 12.1 ± 0.7 days
- Apoptotic cells, average per section+/−SD ([1]; 10 mg/kg QD p.o.): 2.2+/−1.0
- Demyelination score (H&E sections), average per section+/−SD ([1]; 10 mg/kg QD p.o.): 1.9+/−0.8
- MMS +/− SD ([1]; 10 mg/kg QD p.o.): 2.55+/−0.76
- Median Day of Onset ([1]; 10 mg/kg QD p.o.): 14 days and 14.0 days
- End % body weight +/− SD ([1]; 10 mg/kg QD p.o.): 95.6+/−8.5%
- End score +/− SD ([1]; 10 mg/kg QD p.o.): 1.65+/−0.85
- Mean day of EAE onset ([1]; 10 mg/kg QD p.o.): 14.4 ± 1.5 days
- Inflammatory foci +/− SD ([1]; 10 mg/kg QD p.o.): 5.2+/−3.2
- Demyelination (LFB) +/− SD ([1]; 10 mg/kg QD p.o.): 1.6+/−0.8
- CPG-A induced IFN-α production [2]: potently inhibited; also recorded: blocked
- CPG-A induced IL-6 production [2]: Inhibited
- CPG-A induced IL-8 production [2]: Inhibited
- CPG-A induced TNF-α production [2]: Inhibited
